System: 313798-341-R-J2-PDC spheroids, viability
Assay: Anticancer human tumor 313798-341-R-J2-PDC patient-derived cervical squamous cell carcinoma cell line growth inhibition [PI3K]
Settings: spheroids with HUVEC and MSC; for IC50: curve of first compound; for viability, T/C: stronger effect = lower value
Procedure, shortened: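 Spheroid viability read-out. Co-cultures contained the tumor line plus HUVEC and human MSCs. Each agent was paired with a PI3K inhibitor (inavolisib, alpelisib, duvelisib, copanlisib) across half-log dilutions starting at clinical Cmax, or at 10 microM when Cmax was unknown.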

[1] = second compound 0.00316 µM, first compound 0.0316 µM
[2] = second compound 0.00316 µM, first compound 0.1 µM
[3] = second compound 0.00316 µM, first compound 0.316 µM
[4] = second compound 0.00316 µM, first compound 1 µM
[5] = second compound 0.00316 µM, first compound 3.16 µM
[6] = second compound 0.00316 µM, first compound 10 µM
[7] = second compound 0.01 µM, first compound 0.0316 µM
[8] = second compound 0.01 µM, first compound 0.1 µM
[9] = second compound 0.01 µM, first compound 0.316 µM
[10] = second compound 0.01 µM, first compound 1 µM
[11] = second compound 0.01 µM, first compound 3.16 µM
[12] = second compound 0.01 µM, first compound 10 µM
[13] = second compound 0.0316 µM, first compound 0.0316 µM
[14] = second compound 0.0316 µM, first compound 0.1 µM
[15] = second compound 0.0316 µM, first compound 0.316 µM
[16] = second compound 0.0316 µM, first compound 1 µM
[17] = second compound 0.0316 µM, first compound 3.16 µM
[18] = second compound 0.0316 µM, first compound 10 µM
[19] = second compound 0.1 µM, first compound 0.0316 µM
[20] = second compound 0.1 µM, first compound 0.1 µM
[21] = second compound 0.1 µM, first compound 0.316 µM
[22] = second compound 0.1 µM, first compound 1 µM
[23] = second compound 0.1 µM, first compound 3.16 µM
[24] = second compound 0.1 µM, first compound 10 µM
[25] = second compound 0.316 µM, first compound 0.0316 µM
[26] = second compound 0.316 µM, first compound 0.1 µM
[27] = second compound 0.316 µM, first compound 0.316 µM
[28] = second compound 0.316 µM, first compound 1 µM
[29] = second compound 0.316 µM, first compound 3.16 µM
[30] = second compound 0.316 µM, first compound 10 µM
[31] = second compound 1 µM, first compound 0.0316 µM
[32] = second compound 1 µM, first compound 0.1 µM
[33] = second compound 1 µM, first compound 0.316 µM
[34] = second compound 1 µM, first compound 1 µM
[35] = second compound 1 µM, first compound 3.16 µM
[36] = second compound 1 µM, first compound 10 µM
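Also: spheroids exposed to compounds for seven days.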
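For viability, T/C in this document: 100% = DMSO vehicle control viability.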

## C#Cc1c(F)ccc2cc(O)cc(-c3ncc4c(N5CC6CCC(C5)N6)nc(OCC56CCCN5CC(F)C6)nc4c3F)c12 (stereo not given) + CC(Nc1ccc2c(c1)OCCn1cc(N3C(=O)OCC3C(F)F)nc1-2)C(N)=O
Second compound 0.00316 µM
  IC50: > 10 µM
Second compound 0.01 µM
  IC50: > 10 µM
Second compound 0.0316 µM
  IC50: > 10 µM
Second compound 0.1 µM
  IC50: > 10 µM
Second compound 0.316 µM
  IC50: > 10 µM
Second compound 1 µM
  IC50: > 10 µM
[1]
  viability, T/C: 91.8%
[2]
  viability, T/C: 96.8%
[3]
  viability, T/C: 97.4%
[4]
  viability, T/C: 95.5%
[5]
  viability, T/C: 99.3%
[6]
  viability, T/C: 99.3%
[7]
  viability, T/C: 97.7%
[8]
  viability, T/C: 99.9%
[9]
  viability, T/C: 102%
[10]
  viability, T/C: 110%
[11]
  viability, T/C: 116%
[12]
  viability, T/C: 98.9%
[13]
  viability, T/C: 100%
[14]
  viability, T/C: 113%
[15]
  viability, T/C: 109%
[16]
  viability, T/C: 99.1%
[17]
  viability, T/C: 109%
[18]
  viability, T/C: 104%
[19]
  viability, T/C: 118%
[20]
  viability, T/C: 94.5%
[21]
  viability, T/C: 108%
[22]
  viability, T/C: 104%
[23]
  viability, T/C: 102%
[24]
  viability, T/C: 97%
[25]
  viability, T/C: 91%
[26]
  viability, T/C: 81.6%
[27]
  viability, T/C: 74.2%
[28]
  viability, T/C: 78.8%
[29]
  viability, T/C: 83%
[30]
  viability, T/C: 76.9%
[31]
  viability, T/C: 60.6%
[32]
  viability, T/C: 62.2%
[33]
  viability, T/C: 61.2%
[34]
  viability, T/C: 58.9%
[35]
  viability, T/C: 58.6%
[36]
  viability, T/C: 45.6%

## C=CC(=O)N1CCN(c2nc(=O)n(-c3c(C)ccnc3C(C)C)c3nc(-c4c(O)cccc4F)c(F)cc23)C(C)C1 (stereo not given) + CC(Nc1ccc2c(c1)OCCn1cc(N3C(=O)OCC3C(F)F)nc1-2)C(N)=O
Second compound 0.00316 µM
  IC50: > 10 µM
Second compound 0.01 µM
  IC50: > 10 µM
Second compound 0.0316 µM
  IC50: > 10 µM
Second compound 0.1 µM
  IC50: > 10 µM
Second compound 0.316 µM
  IC50: > 10 µM
Second compound 1 µM
  IC50: > 10 µM
[1]
  viability, T/C: 111%
[2]
  viability, T/C: 92.3%
[3]
  viability, T/C: 97.2%
[4]
  viability, T/C: 96%
[5]
  viability, T/C: 105%
[6]
  viability, T/C: 98.7%
[7]
  viability, T/C: 98.3%
[8]
  viability, T/C: 102%
[9]
  viability, T/C: 97.8%
[10]
  viability, T/C: 95.2%
[11]
  viability, T/C: 102%
[12]
  viability, T/C: 97.7%
[13]
  viability, T/C: 110%
[14]
  viability, T/C: 97.1%
[15]
  viability, T/C: 104%
[16]
  viability, T/C: 96.9%
[17]
  viability, T/C: 106%
[18]
  viability, T/C: 102%
[19]
  viability, T/C: 104%
[20]
  viability, T/C: 95.3%
[21]
  viability, T/C: 102%
[22]
  viability, T/C: 101%
[23]
  viability, T/C: 118%
[24]
  viability, T/C: 100%
[25]
  viability, T/C: 83.7%
[26]
  viability, T/C: 85.8%
[27]
  viability, T/C: 86.8%
[28]
  viability, T/C: 96.7%
[29]
  viability, T/C: 87.5%
[30]
  viability, T/C: 70%
[31]
  viability, T/C: 55.2%
[32]
  viability, T/C: 59.5%
[33]
  viability, T/C: 54.8%
[34]
  viability, T/C: 56.4%
[35]
  viability, T/C: 66.7%
[36]
  viability, T/C: 56.2%

## CC(Cn1ccc(-c2ccc(C#N)c(Cl)c2)n1)NC(=O)c1cc(C(C)O)[nH]n1 (stereo not given) + CC(Nc1ccc2c(c1)OCCn1cc(N3C(=O)OCC3C(F)F)nc1-2)C(N)=O
Second compound 0.00316 µM
  IC50: > 10 µM
Second compound 0.01 µM
  IC50: > 10 µM
Second compound 0.0316 µM
  IC50: > 10 µM
Second compound 0.1 µM
  IC50: > 10 µM
Second compound 0.316 µM
  IC50: > 10 µM
Second compound 1 µM
  IC50: 4.5 µM
[1]
  viability, T/C: 102%
[2]
  viability, T/C: 107%
[3]
  viability, T/C: 98.3%
[4]
  viability, T/C: 101%
[5]
  viability, T/C: 105%
[6]
  viability, T/C: 99.8%
[7]
  viability, T/C: 106%
[8]
  viability, T/C: 103%
[9]
  viability, T/C: 109%
[10]
  viability, T/C: 103%
[11]
  viability, T/C: 100%
[12]
  viability, T/C: 89.1%
[13]
  viability, T/C: 122%
[14]
  viability, T/C: 111%
[15]
  viability, T/C: 106%
[16]
  viability, T/C: 113%
[17]
  viability, T/C: 96.7%
[18]
  viability, T/C: 97.2%
[19]
  viability, T/C: 109%
[20]
  viability, T/C: 107%
[21]
  viability, T/C: 102%
[22]
  viability, T/C: 117%
[23]
  viability, T/C: 99.1%
[24]
  viability, T/C: 82.3%
[25]
  viability, T/C: 86.7%
[26]
  viability, T/C: 86.3%
[27]
  viability, T/C: 78.8%
[28]
  viability, T/C: 84.5%
[29]
  viability, T/C: 79.9%
[30]
  viability, T/C: 60.8%
[31]
  viability, T/C: 64.8%
[32]
  viability, T/C: 55.5%
[33]
  viability, T/C: 63.7%
[34]
  viability, T/C: 58.6%
[35]
  viability, T/C: 54.2%
[36]
  viability, T/C: 40.5%

## CC1(C)CCC(Nc2ncc(C(F)(F)F)c(-c3c[nH]c4c(P(C)(C)=O)c(C#N)ccc34)n2)CN1 (stereo not given) + CC(Nc1ccc2c(c1)OCCn1cc(N3C(=O)OCC3C(F)F)nc1-2)C(N)=O
Second compound 0.00316 µM
  IC50: 0.0316 µM
Second compound 0.01 µM
  IC50: < 0.0316 µM
Second compound 0.0316 µM
  IC50: < 0.0316 µM
Second compound 0.1 µM
  IC50: < 0.0316 µM
Second compound 0.316 µM
  IC50: < 0.0316 µM
Second compound 1 µM
  IC50: < 0.0316 µM
[1]
  viability, T/C: 53.1%
[2]
  viability, T/C: 45.8%
[3]
  viability, T/C: 42.4%
[4]
  viability, T/C: 48.7%
[5]
  viability, T/C: 51.6%
[6]
  viability, T/C: 29.3%
[7]
  viability, T/C: 49.6%
[8]
  viability, T/C: 47.2%
[9]
  viability, T/C: 46.1%
[10]
  viability, T/C: 44.1%
[11]
  viability, T/C: 49.4%
[12]
  viability, T/C: 25.4%
[13]
  viability, T/C: 45%
[14]
  viability, T/C: 40.9%
[15]
  viability, T/C: 37.9%
[16]
  viability, T/C: 38.6%
[17]
  viability, T/C: 41%
[18]
  viability, T/C: 29.1%
[19]
  viability, T/C: 36.7%
[20]
  viability, T/C: 31.6%
[21]
  viability, T/C: 31.1%
[22]
  viability, T/C: 31.7%
[23]
  viability, T/C: 30.9%
[24]
  viability, T/C: 14.8%
[25]
  viability, T/C: 26.4%
[26]
  viability, T/C: 25.3%
[27]
  viability, T/C: 24.9%
[28]
  viability, T/C: 23.1%
[29]
  viability, T/C: 29.3%
[30]
  viability, T/C: 8.87%
[31]
  viability, T/C: 21.1%
[32]
  viability, T/C: 20.6%
[33]
  viability, T/C: 21.5%
[34]
  viability, T/C: 21.9%
[35]
  viability, T/C: 23.9%
[36]
  viability, T/C: 3.07%

## Cn1nccc1Nc1nccc(-c2ccn(C(CO)c3ccc(Cl)c(F)c3)c(=O)c2)n1 (stereo not given) + CC(Nc1ccc2c(c1)OCCn1cc(N3C(=O)OCC3C(F)F)nc1-2)C(N)=O
Second compound 0.00316 µM
  IC50: > 10 µM
Second compound 0.01 µM
  IC50: > 10 µM
Second compound 0.0316 µM
  IC50: > 10 µM
Second compound 0.1 µM
  IC50: > 10 µM
Second compound 0.316 µM
  IC50: > 10 µM
Second compound 1 µM
  IC50: 0.219 µM
[1]
  viability, T/C: 98.2%
[2]
  viability, T/C: 96%
[3]
  viability, T/C: 90.5%
[4]
  viability, T/C: 97.2%
[5]
  viability, T/C: 103%
[6]
  viability, T/C: 100%
[7]
  viability, T/C: 98.7%
[8]
  viability, T/C: 97.9%
[9]
  viability, T/C: 87.9%
[10]
  viability, T/C: 111%
[11]
  viability, T/C: 121%
[12]
  viability, T/C: 102%
[13]
  viability, T/C: 109%
[14]
  viability, T/C: 98.6%
[15]
  viability, T/C: 102%
[16]
  viability, T/C: 112%
[17]
  viability, T/C: 115%
[18]
  viability, T/C: 99.5%
[19]
  viability, T/C: 98%
[20]
  viability, T/C: 95%
[21]
  viability, T/C: 93.6%
[22]
  viability, T/C: 94.8%
[23]
  viability, T/C: 89.4%
[24]
  viability, T/C: 80.2%
[25]
  viability, T/C: 77%
[26]
  viability, T/C: 66.4%
[27]
  viability, T/C: 65.7%
[28]
  viability, T/C: 58.5%
[29]
  viability, T/C: 66.8%
[30]
  viability, T/C: 51.6%
[31]
  viability, T/C: 59%
[32]
  viability, T/C: 46.1%
[33]
  viability, T/C: 46.8%
[34]
  viability, T/C: 46.5%
[35]
  viability, T/C: 52.7%
[36]
  viability, T/C: 34.9%

Source: PubChem BioAssay AID1963982 (Molecular Pharmacology Branch, DTP, NCI, 2024)
